This is an account of results in patent US20230203098A1, “HUMAN TRANSFERRIN RECEPTOR BINDING PEPTIDE” (priority 2020, published 2023).

Where a SMILES comes first, the peptide text is derived from it. Bridges are numbered along the chain shown (N, C = ends). [ ]: non-standard residue; d: D form. PEG12 = NCCOCCOCCOCCOCCOCCOCCOCCOCCOCCOCCOCCOCCC(=O)O; NMeY = CN[C@@H](Cc1ccc(O)cc1)C(=O)O; NMeF = CN[C@@H](Cc1ccccc1)C(=O)O; Chg = N[C@H](C(=O)O)C1CCCCC1

Chain of transferrin receptor (hTfR) (P02786 whole entry): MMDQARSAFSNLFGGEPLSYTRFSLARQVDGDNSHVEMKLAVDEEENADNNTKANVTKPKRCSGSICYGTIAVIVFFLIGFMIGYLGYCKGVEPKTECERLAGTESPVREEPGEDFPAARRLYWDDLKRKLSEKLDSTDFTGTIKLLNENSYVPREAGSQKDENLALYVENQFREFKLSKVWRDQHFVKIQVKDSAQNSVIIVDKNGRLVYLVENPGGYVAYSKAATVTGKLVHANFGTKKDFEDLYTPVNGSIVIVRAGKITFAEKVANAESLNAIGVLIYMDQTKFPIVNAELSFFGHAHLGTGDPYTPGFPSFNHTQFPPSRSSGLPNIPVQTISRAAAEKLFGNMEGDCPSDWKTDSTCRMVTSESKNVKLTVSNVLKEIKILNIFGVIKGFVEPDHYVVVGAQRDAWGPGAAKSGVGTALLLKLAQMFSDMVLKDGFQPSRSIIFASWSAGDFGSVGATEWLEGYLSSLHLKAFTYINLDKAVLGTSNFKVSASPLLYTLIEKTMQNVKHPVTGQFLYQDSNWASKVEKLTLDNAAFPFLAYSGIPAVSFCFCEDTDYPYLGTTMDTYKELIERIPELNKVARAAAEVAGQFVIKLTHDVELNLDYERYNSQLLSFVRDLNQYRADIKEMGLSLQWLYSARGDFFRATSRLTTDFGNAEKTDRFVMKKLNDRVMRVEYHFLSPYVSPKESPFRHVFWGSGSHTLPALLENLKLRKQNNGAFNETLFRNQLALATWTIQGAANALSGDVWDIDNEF

This assay addresses transferrin receptor (hTfR) (Homo sapiens, UniProt P02786). As to the kind of experiment: Intermolecular interaction evaluation test between transferrin receptor (hTfR) and peptide by surface plasmon resonance (SPR). Format: binding. The following applies: binding to hTfR by SPR; Table 2 peptides; read-out: KD value (SPR) class. Summed up:
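Receptor was Ni-captured and EDC/NHS-fixed on an NTA chip; running buffer HEPES pH 8.0 with NaCl, Tween 20, BSA and 1.0% DMSO.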
(In SPR one partner is held on a chip, and binding of the other changes the refractive index at the surface.)
For the compound `CC[C@H](C)[C@@H]1NC(=O)[C@H](Cc2ccc(O)cc2)NC(=O)[C@H](Cc2ccc(O)cc2)NC(=O)[C@H](CC(N)=O)NC(=O)[C@H](Cc2c[nH]c3ccccc23)NC(=O)[C@H](C(C)C)NC(=O)[C@H](Cc2ccccc2)NC(=O)[C@H](C(C)C)NC(=O)[C@H](C)NC(=O)CSC[C@@H](C(N)=O)NC(=O)[C@H](Cc2ccc(O)cc2)N(C)C(=O)[C@H](Cc2ccc(O)cc2)NC(=O)[C@H](CCCNC(=N)N)NC(=O)[C@H](CCCCN)N(C)C(=O)[C@H]([C@@H](C)CC)NC1=O` [compound 254], the Kd fell in the range of 1 to 100 nM.

As for `CC[C@H](C)[C@@H]1NC(=O)[C@H](Cc2ccc(O)cc2)NC(=O)[C@H](Cc2ccc(O)cc2)NC(=O)[C@H](CC(N)=O)NC(=O)[C@H](Cc2c[nH]c3ccccc23)NC(=O)[C@H](C(C)C)NC(=O)[C@H](Cc2ccccc2)NC(=O)[C@H](C(C)C)NC(=O)[C@H](C)NC(=O)CSC[C@@H](C(N)=O)NC(=O)[C@H](Cc2ccc(O)cc2)N(C)C(=O)[C@H](Cc2ccc(O)cc2)NC(=O)[C@H](CCCNC(=N)N)NC(=O)[C@H](CCCCN)NC(=O)[C@H]([C@@H](C)CC)NC1=O` [compound 255], the Kd is below 1 nM.

For the compound `CC[C@H](C)[C@@H]1NC(=O)[C@H](Cc2ccc(O)cc2)NC(=O)[C@H](Cc2ccc(O)cc2)NC(=O)[C@H](CC(N)=O)NC(=O)[C@H](Cc2c[nH]c3ccccc23)NC(=O)[C@H](C(C)C)NC(=O)[C@H](Cc2ccccc2)NC(=O)[C@H](C(C)C)NC(=O)[C@H](C)NC(=O)CSC[C@@H](C(N)=O)NC(=O)[C@H](Cc2ccc(O)cc2)N(C)C(=O)[C@H](Cc2ccc(O)cc2)NC(=O)[C@H](C)NC(=O)[C@H](CCCNC(=N)N)NC(=O)[C@H]([C@@H](C)CC)NC1=O` [compound 256], the Kd fell in the range of 1 to 100 nM.

Take `CC[C@H](C)[C@@H]1NC(=O)[C@H](Cc2ccc(O)cc2)NC(=O)[C@H](Cc2ccc(O)cc2)NC(=O)[C@H](CC(N)=O)NC(=O)[C@H](Cc2c[nH]c3ccccc23)NC(=O)[C@H](C(C)C)NC(=O)[C@H](Cc2ccccc2)NC(=O)[C@H](C(C)C)NC(=O)[C@H](C)NC(=O)CSC[C@@H](C(N)=O)NC(=O)[C@H](Cc2ccc(O)cc2)N(C)C(=O)[C@H](Cc2ccc(O)cc2)NC(=O)[C@H](CCC(=O)O)NC(=O)[C@H](CCCNC(=N)N)NC(=O)[C@H]([C@@H](C)CC)NC1=O` [compound 257]: the Kd was 1 to 100 nM.

Regarding `CC[C@H](C)[C@@H]1NC(=O)[C@H](Cc2ccc(O)cc2)NC(=O)[C@H](Cc2ccc(O)cc2)NC(=O)[C@H](CC(N)=O)NC(=O)[C@H](Cc2c[nH]c3ccccc23)NC(=O)[C@H](C(C)C)NC(=O)[C@H](Cc2ccccc2)NC(=O)[C@H](C(C)C)NC(=O)[C@H](C)NC(=O)CSC[C@@H](C(N)=O)NC(=O)[C@H](Cc2ccc(O)cc2)N(C)C(=O)[C@H](Cc2ccc(O)cc2)NC(=O)[C@H](CCCCN)NC(=O)[C@H](CCCNC(=N)N)NC(=O)[C@H]([C@@H](C)CC)NC1=O` [compound 258], the Kd was in the range of 1 to 100 nM.

Take `CC[C@H](C)[C@@H]1NC(=O)[C@H](Cc2ccc(O)cc2)NC(=O)[C@H](Cc2ccc(O)cc2)NC(=O)[C@H](CC(N)=O)NC(=O)[C@H](Cc2c[nH]c3ccccc23)NC(=O)[C@H](C(C)C)NC(=O)[C@H](Cc2ccccc2)NC(=O)[C@H](C(C)C)NC(=O)[C@H](C)NC(=O)CSC[C@@H](C(N)=O)NC(=O)[C@H](Cc2ccc(O)cc2)N(C)C(=O)[C@H](CCC(=O)O)NC(=O)[C@H](CCCNC(=N)N)NC(=O)[C@H](CCCNC(=N)N)NC(=O)[C@H]([C@@H](C)CC)NC1=O` [compound 259]: the Kd was in the range of 1 to 100 nM.

As for `CC[C@H](C)[C@@H]1NC(=O)[C@H](Cc2ccc(O)cc2)NC(=O)[C@H](Cc2ccc(O)cc2)NC(=O)[C@H](CC(N)=O)NC(=O)[C@H](Cc2c[nH]c3ccccc23)NC(=O)[C@H](C(C)C)NC(=O)[C@H](Cc2ccccc2)NC(=O)[C@H](C(C)C)NC(=O)[C@H](C)NC(=O)CSC[C@@H](C(N)=O)NC(=O)[C@H](Cc2ccc(O)cc2)N(C)C(=O)[C@H](CCCNC(=N)N)NC(=O)[C@H](CCCNC(=N)N)NC(=O)[C@H](CCCNC(=N)N)NC(=O)[C@H]([C@@H](C)CC)NC1=O` [compound 260], the dissociation constant Kd was 1 to 100 nM.

In the case of `CC[C@H](C)[C@@H]1NC(=O)[C@H](Cc2ccc(O)cc2)NC(=O)[C@H](Cc2ccc(O)cc2)NC(=O)[C@H](CC(N)=O)NC(=O)[C@H](Cc2c[nH]c3ccccc23)NC(=O)[C@H](C(C)C)NC(=O)[C@H](Cc2ccccc2)NC(=O)[C@H](C(C)C)NC(=O)[C@H](C)NC(=O)CSC[C@@H](C(N)=O)NC(=O)[C@H](Cc2ccc(O)cc2)N(C)C(=O)[C@H](CCCCN)NC(=O)[C@H](CCCNC(=N)N)NC(=O)[C@H](CCCNC(=N)N)NC(=O)[C@H]([C@@H](C)CC)NC1=O` [compound 261], the Kd lay within 1 to 100 nM.

Regarding `CC[C@H](C)[C@@H]1NC(=O)[C@H](Cc2ccc(O)cc2)NC(=O)[C@H](Cc2ccc(O)cc2)NC(=O)[C@H](CC(N)=O)NC(=O)[C@H](Cc2c[nH]c3ccccc23)NC(=O)[C@H](C(C)C)NC(=O)[C@H](Cc2ccccc2)NC(=O)[C@H](C(C)C)NC(=O)[C@H](C)NC(=O)CSC[C@@H](C(=O)NCC(=O)NCC(=O)N[C@@H](CO)C(=O)NCC(=O)N[C@@H](CO)C(=O)NCC(=O)N[C@@H](CCCCNC(=O)C2CCC(CN3C(=O)C=CC3=O)CC2)C(N)=O)NC(=O)[C@H](Cc2ccc(O)cc2)NC(=O)[C@H](Cc2ccccc2)NC(=O)[C@H](CCCNC(=N)N)NC(=O)[C@H](CCCNC(=N)N)NC(=O)[C@H]([C@@H](C)CC)NC1=O` (stereo partly drawn) [compound 262], the Kd was in the range of 100 to 1000 nM.

As for `CC[C@H](C)[C@@H]1NC(=O)[C@H](Cc2ccc(O)cc2)NC(=O)[C@H](Cc2ccc(O)cc2)NC(=O)[C@H](CC(N)=O)NC(=O)[C@H](Cc2c[nH]c3ccccc23)N(C)C(=O)[C@H](C(C)C)NC(=O)[C@H](Cc2ccccc2)NC(=O)[C@H](C(C)C)NC(=O)[C@H](C)NC(=O)CSC[C@@H](C(N)=O)NC(=O)[C@H](Cc2ccc(O)cc2)N(C)C(=O)[C@H](Cc2ccc(O)cc2)NC(=O)[C@H](CCCNC(=N)N)NC(=O)[C@H](CCCNC(=N)N)NC(=O)[C@H]([C@@H](C)CC)NC1=O` [compound 263], the Kd was below 1 nM.

In the case of `CC[C@H](C)[C@@H]1NC(=O)[C@H](Cc2ccc(O)cc2)NC(=O)[C@H](Cc2ccc(O)cc2)NC(=O)[C@H](CC(N)=O)NC(=O)[C@H](Cc2c[nH]c3ccccc23)N(C)C(=O)[C@H](C(C)C)NC(=O)[C@H](Cc2ccccc2)NC(=O)[C@H](C(C)C)NC(=O)[C@H](C)NC(=O)CSC[C@@H](C(=O)NCCOCCOCCOCCOCCC(N)=O)NC(=O)[C@H](Cc2ccc(O)cc2)N(C)C(=O)[C@H](Cc2ccc(O)cc2)NC(=O)[C@H](CCCNC(=N)N)NC(=O)[C@H](CCCNC(=N)N)NC(=O)[C@H]([C@@H](C)CC)NC1=O` [compound 264], the dissociation constant Kd was below 1 nM.

In the case of `CC[C@H](C)[C@@H]1NC(=O)[C@H](C2CCCCC2)NC(=O)[C@H](Cc2ccc(O)cc2)NC(=O)[C@H](Cc2ccc(O)cc2)NC(=O)[C@H](CC(N)=O)NC(=O)[C@H](Cc2c[nH]c3ccccc23)NC(=O)[C@H](C2CCCCC2)NC(=O)[C@H](Cc2ccccc2)N(C)C(=O)[C@H](C(C)C)NC(=O)[C@H](C)NC(=O)CSC[C@@H](C(=O)NCCOCCOCCOCCOCCOCCOCCOCCOCCOCCOCCOCCOCCC(N)=O)NC(=O)[C@H](Cc2ccc(O)cc2)N(C)C(=O)[C@H](Cc2ccc(O)cc2)NC(=O)[C@H](CCCNC(=N)N)NC(=O)[C@H](CCCNC(=N)N)NC1=O` [compound 266] ({CH2CO}-AV[NMeF][Chg]WNYY[Chg]IRRY[NMeY]C[PEG12]-NH2; thioether N-15), the Kd is 100 to 1000 nM.

Usually Kd stands for the constant that tells how readily two partners part at equilibrium.
